Structures are written as SMILES. “And” between values parts separate entries of the source, which are not always exact repeats. Identical values can stand only once.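 In this assay, cells in 96-well plates receive the compound at five concentrations for 48 hours. Endpoints are linearly interpolated between the surrounding concentrations. GI50 marks 50% less growth. TGI: total growth inhibition.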

Test in all cases: growth of human tumour cells (NCI), 48 h
The subject of test [1] is A549 NSCLC.
Test [2] concerns MCF7 breast.
Test [3] concerns HT29 colon.
For test [4], the system named is IGROV1 ovarian.
In test [5] the test system is PC-3 prostate.
For test [6], the system named is SN12C renal.
The subject of test [7] is SK-MEL-5 melanoma.
Test [8] deals with TK-10 renal.
The subject of test [9] is MALME-3M melanoma.
Test [10] deals with 786-0 renal.

Turning to `C=C(C)[C@@H]1C/C=C(/CO)CC[C@H]2O[C@]2(C)CC/C=C(\C)CC1`, the GI50 in [1] is 16.1 µM; in test [2], 15.7 µM; in [3] it was 14.5 µM; in test [4], 18.6 µM; in test [5], 11.8 µM; in test [6], 14.6 µM. Besides, the GI50 in test [7] is 12.7 µM; in [8], 9.74 µM; in test [9], 12.9 µM; in test [10], 15.4 µM. Further, the TGI in [1] was found to be 50.3 µM; in test [2], 31.8 µM; in test [3] it was 31.6 µM; in test [4] it was 41.3 µM; in [5], 30.9 µM; in test [6], 29 µM. The TGI in test [7] worked out at 25.5 µM; in test [8] it was 32.8 µM; in [9] it was 28.5 µM; in test [10], 34.2 µM.
`CC(CN(C)C)S(=O)(=O)c1ccc(-c2cnc(N)c(C(=O)Nc3ccccc3)n2)cc1` (centres undefined): the GI50 in test [1] was 2.86 µM; in test [2] it was 1.58 µM; in [3] it was 2.68 µM; in [4], 3.15 µM; in [5], 10.9 µM; in [6], 5.09 µM. Also, the GI50 in [7] was 2.93 µM; in test [8] it was 11.5 µM; in [9] it was 8.16 µM; in test [10] it was 2.37 µM. For the same compound, the TGI is more than 46.1 µM in test [1]; 38.8 µM in test [2]; 13.4 µM in test [3]; 36 µM in [4]; more than 73.8 µM in [5]; 27 µM in test [6]. Further, the TGI in test [7] was 11.5 µM; in test [8], more than 57.2 µM; in test [9] it was 26.6 µM; in [10] it was 15.2 µM.
Consider `Nc1ncnc2c1c(-c1ccc(Oc3ccccc3)cc1)nn2C[C@H]1SSC[C@@H]1O`, for which the GI50 in test [1] was 0.519 µM; in test [2], 0.289 µM; in test [3] it was 0.304 µM; in test [4], 1.43 µM; in test [5], 3.01 µM; in test [6] it was 1.36 µM. For the same compound, the GI50 in [7] was 0.545 µM; in [8] it was 0.585 µM; in test [9], 0.826 µM; in test [10], 3.09 µM. Besides, the TGI in [1] was determined as 6.81 µM; in test [2], 4.37 µM; in test [3] it was 7.35 µM; in test [4], 8.11 µM; in [5], 18.2 µM; in test [6], 13.2 µM. Also, the TGI in test [7] worked out at 1.79 µM; in [8], 2.54 µM; in test [9], 3.94 µM; in [10], 12 µM.
For the compound `O=P(O)(O)OCC1OC(n2cnc3c(NCc4ccco4)ncnc32)C(O)C1O` (centres undefined), the GI50 in test [1] is 2.73 µM; in test [2], 0.776 µM; in test [3], 2.98 µM; in test [4] it was 1.39 µM; in [5], 0.927 µM; in [6], 0.989 µM. The GI50 in test [7] was 3.89 µM; in test [8] it was 1.77 µM; in test [9] it was 5.09 µM; in test [10], 3.35 µM. Moreover, the TGI is more than 37.8 µM in [1]; more than 21.6 µM in test [2]; more than 100 µM in test [3]; 12.3 µM in [5]; more than 37.2 µM in [6]; more than 37.4 µM in test [7]. In addition, the values for the TGI in test [8], in test [9] and in test [10] were more than 43.9 µM, 40.9 µM and more than 49.9 µM, respectively.
Turning to `Clc1ccccc1[C@@H]1C[C@@H]2Cc3cc(Br)c4ccccc4c3N1O2`, the GI50 in test [1] is 4.91 µM; in test [2], 3.61 µM; in test [3] it was 2.38 µM; in test [4] it was 10.4 µM; in [5], 5.85 µM; in test [6], 8.71 µM. Also, the GI50 in test [7] was 2.81 µM; in [8], 5.54 µM; in test [9], 4.83 µM; in [10], 5.2 µM. For the same compound, the TGI in test [1] was more than 100 µM; in [2] it was more than 100 µM; in test [3] it was 5.19 µM; in [4] it was more than 100 µM; in test [5], more than 100 µM; in test [6] it was more than 100 µM. Besides, the TGI in test [7] was 15.2 µM; in [8], more than 100 µM; in [9], more than 100 µM; in test [10], more than 100 µM.
For `Cc1cn(CCC(N)C(=O)O)c(=O)[nH]c1=O` (centres undefined), the TGI in test [1], in test [2], in [3], in [4], in [5] and in [6] was more than 100 µM in each case. Besides, the TGI in test [7], in [8], in test [9] and in [10] was more than 100 µM throughout.
For the compound `CN(C)c1ccc(C(=N)c2ccc(N(C)C)cc2)cc1`, the GI50 in [1] was 5.1 µM and 3.95 µM; in test [2], 1.34 µM and 1.29 µM; in [3] it was 1.32 µM and 2.11 µM; in test [4] it was 3.45 µM and 7.32 µM; in test [5] it was 3.75 µM and 3.74 µM; in test [6], 6.32 µM and 6.04 µM. In addition, the GI50 in test [7] was 2.74 µM and 2.92 µM; in test [8] it was 4.47 µM and 7.22 µM; in test [9], 3.04 µM and 9.7 µM; in test [10], 6.12 µM and 8.26 µM. The TGI in test [1] is 36.7 µM and > 100 µM; in test [2] it was 32.3 µM and 38.3 µM; in [3], 11.6 µM and 16.4 µM; in test [4] it was 31.7 µM and > 100 µM; in [5] it was 36.2 µM and > 100 µM; in [6], more than 100 µM. The TGI in [7] is 10.9 µM and 13.2 µM; in test [8] it was 38.9 µM and 91.6 µM; in test [9], 28.8 µM and 62.2 µM; in test [10], 24.4 µM and 32 µM.
On to `CCn1c(-c2c(Cl)cc(O)cc2Cl)cc2c(Cl)cc(O)cc21`, for which the TGI in test [1] was 44.2 µM; in [2] it was 25.2 µM; in test [3], 6.82 µM; in [4], 12.9 µM; in test [5] it was more than 100 µM; in test [6], more than 100 µM. Moreover, the TGI in test [7] came out at 12.5 µM; in [8] it was 59.2 µM; in [9], 39.3 µM; in test [10], 24.8 µM.

(Values after PubChem BioAssay (NCI).)
